Data reported in patent US20050043271A1, “Heparin-containing ophthalmic agent” (priority 2001, published 2005).

Assays:
[1] = tested on: allergically caused conjunctival inflammation; conditions: high-dosage, topical application to the eye, animals; cited from earlier work
mast cells = conditions: without direct antihistamine effect; inhalative and intravenous application; cited from earlier work
[2] = tear film tearing time (fluorescein, slit lamp); type: in vivo; conditions: concentration of 0.1% by weight to 0.3% by weight
Description: A further diagnostic parameter in regard to diagnosis of the “dry eye” syndrome is the tear film tearing time which makes it possible to provide information about the quality of the tear fluid. In that case for example the tear film is dyed with fluorescein and the patient is then asked to keep the eyes open as long as possible without a blink reflex. A slit lamp is then used to establish when the tear film tears open for the first time. If the period of time is less than 10 seconds, there is the suspicion of the “dry eye” syndrome.

[3] = tested on: cornea epithelium cells of rabbits; test: epithelium cell migration; type: cell-based; conditions: 0.1% by weight solution
dry eyes = test: subjective feeling of patients in treatment of dry eyes; type: in vivo; conditions: 0.1% by weight in the composition
Description: Aqueous sodium hyaluronate solutions are fluids with non-Newtonian flow properties. By virtue of that physical property, aqueous sodium hyaluronate solutions are excellently well suited as slip and lubricating agents with a good cling effect and a prolonged residence time on the conjunctival and corneal epithelia, without adversely affecting visual efficiency.

## heparin
[1]
  treatment of allergically caused conjunctival inflammation: effective
Mast cells
  degranulation, caused by antigens, of mast cells: inhibits degranulation

## hyaluronic acid
[2]
  prolonging the tear film tearing time: highly effective

## sodium hyaluronate
[3]
  epithelium cell migration: increased epithelium cell migration
Dry eyes
  subjective feeling of the patients: considerably improves
